Series [1] in a line: Solubility determination in oil (Table 10). The following applies: thermodynamic from solid; for solubility thermodynamic: water, Equilibrium solubility: Water. The method, then: A known amount of test substance (˜40 mg) was weighed into the vial, 100 μL of oil was added and heated to 60° C. and then system was slurried to reach equilibrium. […] Extra oil was added into the vial once compound precipitated out and then the system was re-equilibrated at 1000 rpm at room temperature (25° C.). Final concentration was determined by HPLC method as described below in Table 6a and 6b.

A short description of series [2]: Dog body weights and clinical observation (Tables 66-86). The class given is in vivo, Beagle dogs. The following applies: dog D1002, 48 mg/kg. The method, then:
Weight monitoring was done every week.
The dose formulation (concentration—400 mg base equivalents/ml in sesame oil+1% benzyl alcohol, unless otherwise specified) was administered via deep intramuscularly (unless otherwise specified). The injection vehicle was also dosed via deep intramuscular route (unless otherwise specified) on contralateral site of each animal at study initiation. The animals were sedated with Propofol at 6 mg/kg via IV administration. Following sedation hair was carefully removed from around the injection site and the area gently cleaned. Care will be taken to avoid irritating skin during shaving and cleaning the injection site. Then dogs will be dosed with deep IM administration. At least 2.5 cm depth from the surface into the central aspect of the quadriceps or biceps femoris muscle, by angling the needle toward the femur. If the needle hits the femur, simply draws back slightly and then inject. The dose volume will be determined by the animals' body weight collected on the morning of dosing day. For repeated administration, the injection sites may be rotated to minimize tissue injury.

A short description of series [3]: Dog pharmacokinetic studies, deep intramuscular administration. The class given is in vivo, Beagle dogs. The conditions noted are these: Beagle, dog, plasma, im, Sesame oil + 1% Benzyl Alcohol; for AUC(0-inf): read-out: AUC0-inf (ng · h/mL) prodrug; for half-life: read-out: Half-life t1/2 (hour) prodrug (converted). The essentials:
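Beagle dogs (n=3) dosed by deep intramuscular injection into quadriceps or biceps femoris, formulation 400 mg base equivalents/mL in sesame oil + 1% benzyl alcohol, under propofol sedation. Plasma quantified by LC-MS/MS; non-compartmental analysis for Cmax, Tmax, T1/2, AUC and MRT.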

The nature of series [4]: Rat pharmacokinetic studies, intramuscular administration. The class given is in vivo, male Sprague Dawley Rats. The following applies: male, Sprague Dawley, rat, plasma, im, Sesame oil + 1% Benzyl Alcohol; for AUC(0-inf): read-out: AUC0-inf (ng · h/mL) prodrug; for half-life: read-out: Half-life t1/2 (hour) prodrug (converted). How it is done:
The purpose of this study is to determine the pharmacokinetics of test compounds in plasma, following intramuscular administration to male Sprague Dawley Rats (n=3, unless otherwise specified).
The dose formulation of 400 mg base equivalents/ml in sesame oil+1% benzyl alcohol (unless otherwise specified) was administered by intramuscular injection. The dose volume was determined by the animals' body weight determined on the morning of dosing day.
Each collected blood sample was centrifuged for 4 minutes at 4° C. and 10000 rpm for plasma collection. Plasma was collected and transferred into a pre-labeled PP tube in dry ice at each time point and precipitated immediately using ACN at a ratio of 1:4 (plasma:ACN). Centrifuged again (10 minutes, 12000 rpm) and obtain the supernatant.
LC-MS/MS methods for the quantitative determination of test compound in biological matrix were developed. […] The sample analysis was performed concurrently with a set of calibration standards and two sets of QC samples using the LC-MS/MS method.
Plasma concentration versus time data was analyzed by non-compartmental approaches using the Phoenix WinNonlin 6.3 software program. Cmax, Tmax, T1/2, AUC(0-t), AUC(0-inf), MRT(0-t), MRT(0-inf) and graphs of plasma concentration versus time profile were prepared.

The nature of series [5]: Liver S9 fraction stability, dog. The class given is in vitro ADME. The conditions noted are these: dog liver S9 1.0 mg/ml, 2 μM, 37° C. How it is done:
(§1) Liver S9 fraction stability determination of the test compounds in dog, cynomolgus monkey and human is performed using HPLC-MS. Test compound (2 μM, 0.1% DMSO, 1% Methanol final concentration) was assessed for stability in a 50 μl phosphate buffer containing 1.0 mg/ml S9 protein from each of the three species and 5 mM D-saccharic acid-1, 4-lactone. Samples were incubated at 37° C. for 60 minutes and the % compound remaining was assessed.

The nature of series [6]: Liver S9 fraction stability, monkey. The class given is in vitro ADME, cynomolgus monkey. The following applies: monkey liver S9 1.0 mg/ml, 2 μM, 37° C. The method, then:
as §1

Series [7] in a line: Liver S9 fraction stability, human. The conditions noted are these: human liver S9 1.0 mg/ml, 2 μM, 37° C. It counts as in vitro ADME. The method, then: as §1
Series [8] can be described thus: Polymorph screening of solid state drug substances (Table 23). The class given is physicochemical. The following applies: stirred 50 °C 72 hours; for Dry method and appearance: dried solid.
Where [9] appears, read: 25 °C, oil or lipid, Approximate Solubility in Excipient: Cottonseed oil, Heating Temp. 60 °C, Obs. Temp. 25 °C.
[10] abbreviates: 25 °C, oil or lipid, Approximate Solubility in Excipient: Sesame oil, Heating Temp. 60 °C, Obs. Temp. 25 °C.
[11] abbreviates: 40 °C, oil or lipid, Approximate Solubility in Excipient: Cottonseed oil, Heating Temp. 60 °C, Obs. Temp. 40 °C.
Setting [12] is: 40 °C, oil or lipid, Approximate Solubility in Excipient: Sesame oil, Heating Temp. 60 °C, Obs. Temp. 40 °C.

SMILES strings stand for the structures. Converted amounts (≈) assume the structure as drawn.

One may read the melting point as the temperature, or range, at which the solid turns liquid. Broadly, the solubility is the dissolved amount per volume that the medium holds. For orientation: thermodynamic solubility means solubility found after equilibrating the solid with the medium. Compound `C=C1CC[C@@]2(O)C3Cc4ccc(OC(=O)CCCCCCCCCCCCCCC)c5c4[C@@]2(CCN3CC2CC2)[C@H]1O5` [Compound 56, (4aS,7aS,12bS)-3-(cyclopropylmethyl)-4a-hydroxy-7-methylene-2,3,4,4a,5,6,7,7a-octahydro-1H-4,12-methanobenzofuro[3,2-e]isoquinolin-9-yl palmitate] registered a melting point of 48.95 °C. Further, the solubility at 24 h in [1] (setting [9]) is < 50 mg/mL. Also, the solubility at 24 h in [1] (setting [10]) is < 50 mg/mL. This compound also came in with a solubility in series [1] (setting [11]) of 25 to 50 mg/mL (≈ 43.3 to 86.5 mM). The same compound displayed a solubility in series [1] (setting [12]) of 25 to 50 mg/mL (≈ 43.3 to 86.5 mM). In addition, in series [1] (40 °C, organic solvent or mixture, Approximate Solubility in Excipient: Ethanol, Heating Temp. 60 °C, Obs. Temp. 40 °C), the solubility was < 40.4 mg/mL. Besides, in series [1] (40 °C, Heating Temp. 60 °C, Obs. Temp. 40 °C), the solubility (thermodynamic) came to 0.0679 mg/mL (≈ 0.118 mM).

On to `C=C1CC[C@@]2(O)C3Cc4ccc(OCOC(=O)OCCCCCCCCCCC)c5c4[C@@]2(CCN3CC2CC2)[C@H]1O5` [Compound 5, (((4aS,7aS,12bS)-3-(cyclopropylmethyl)-4a-hydroxy-7-methylene-2,3,4,4a,5,6,7,7a-octahydro-1H-4,12-methanobenzofuro[3,2-e]isoquinolin-9-yl)oxy)methyl undecyl carbonate], for which the BT in series [2] (456 hr) was 3 cm * 3 cm/BT: 38.9 °C; in [2] (504 hr), 3 cm * 3 cm/BT: 38.7 °C; in series [2] ([…]), 3 cm * 4 cm/BT: 39.4 °C. For the same compound, the AUC(0-inf) in [3] (48 mg/kg, IM 48 mg/kg) was 3870 ng·h/mL. Moreover, in series [3] (48 mg/kg, IM 48 mg/kg), the half-life was 70.9 h. The solubility in series [1] (25 °C, oil or lipid, Solubility by volumetric flask method: Cottonseed oil, volumetric flask method, Heating Temp. 60 °C, Obs. Temp. 25 °C) was > 402 mg/mL; in series [1] (25 °C, oil or lipid, Solubility by volumetric flask method: Sesame oil, volumetric flask method, Heating Temp. 60 °C, Obs. Temp. 25 °C) it was > 401 mg/mL. Further, the solubility (thermodynamic) in series [1] (40 °C, section 'Solubility by volumetric flask method', Heating Temp. 40 °C, Obs. Temp. 40 °C) was < 0.001 mg/mL.

On to `C=C1CC[C@@]2(O)C3Cc4ccc(OC(=O)CCCCCCC/C=C/CCCCCCCC)c5c4[C@@]2(CCN3CC2CC2)[C@H]1O5` [Compound 15, (4aS,7aS,12bS)-3-(cyclopropylmethyl)-4a-hydroxy-7-methylene-2,3,4,4a,5,6,7,7a-octahydro-1H-4,12-methanobenzofuro[3,2-e]isoquinolin-9-yl (E)-octadec-9-enoate], for which the AUC(0-inf) is 679 ng·h/mL in [4] (80 mg/kg); 2570 ng·h/mL in [4] (123 mg/kg); 2790 ng·h/mL in series [4] (165 mg/kg); 521 ng·h/mL in [3] (30 mg/kg, IM 30 mg/kg); 1140 ng·h/mL in [3] (48 mg/kg, IM 48 mg/kg); 1350 ng·h/mL in series [3] (96 mg/kg, IM 96 mg/kg). The half-life in series [4] (80 mg/kg) is 1550 h; in [4] (123 mg/kg) it was 884 h; in series [4] (165 mg/kg), 500 h; in [3] (30 mg/kg, IM 30 mg/kg) it was 134 h; in [3] (48 mg/kg, IM 48 mg/kg), 518 h; in [3] (96 mg/kg, IM 96 mg/kg), 162 h. In addition, in [5], the “% remaining at 60 minutes, Dog” value is reported as 80.9%. The “% remaining at 60 minutes, Monkey” value in [6] stood at 76.7%. For the same compound, the solubility at 24 h was > 403 mg/mL in series [1] (setting [9]) and > 396 mg/mL in [1] (setting [10]). The solubility is < 51 mg/mL in [1] (40 °C, oil or lipid, Approximate Solubility in Excipient: Cottonseed oil, Heating Temp. 40 °C, Obs. Temp. 40 °C); > 401 mg/mL in [1] (setting [11]); < 52 mg/mL in series [1] (40 °C, oil or lipid, Approximate Solubility in Excipient: Sesame oil, Heating Temp. 40 °C, Obs. Temp. 40 °C); > 404 mg/mL in series [1] (setting [12]); < 20 mg/mL in [1] (40 °C, organic solvent or mixture, Approximate Solubility in Excipient: Ethanol, Heating Temp. 40 °C, Obs. Temp. 40 °C). The thermodynamic solubility in [1] (40 °C, Heating Temp. 40 °C, Obs. Temp. 40 °C) was < 0.0002 mg/mL. The “% remaining at 60 minutes, Human” value in series [7] is on record as 59.8%.

In turn, `C=C1CC[C@@]2(O)C3Cc4ccc(OC(=O)NC(C)(C)C)c5c4[C@@]2(CCN3CC2CC2)[C@H]1O5` [Compound 40, (4aS,7aS,12bS)-3-(cyclopropylmethyl)-4a-hydroxy-7-methylene-2,3,4,4a,5,6,7,7a-octahydro-1H-4,12-methanobenzofuro[3,2-e]isoquinolin-9-yl tert-butylcarbamate] came in with a melting point of 107.6 °C. Moreover, in series [8] (Acetone), the “XRPD results (Dried)” value is listed as “Amorphous”; the “Dry method and appearance” value is recorded as “Evaporation/white powder”. For the same compound, in series [8] (EtOAc), the “XRPD results (Dried)” value is listed as “Pattern A”; the “Dry method and appearance” value is reported as “Evaporation/white powder”. Further, in series [8] (Heptane), the “XRPD results (Dried)” value is “Pattern A”; the “Dry method and appearance” value is reported as “Centrifugation/white powder”. Besides, in series [8] (Isopropanol), the “XRPD results (Dried)” value is listed as “Amorphous”; the “Dry method and appearance” value is on record as “Evaporation/oil”. Besides, in series [8] (MTBE), the “XRPD results (Dried)” value is “Amorphous”; the “Dry method and appearance” value was “Evaporation/white powder”.

The values above are taken from patent US20190308988A1, “OPIOID RECEPTOR ANTAGONIST PRODRUGS” (Nirsum Laboratories, Inc., priority 2017, published 2019).
